Laboratory results reported in US20250222116A1, “PARP-1 DEGRADATION AGENT AND USE THEREOF” (XIZANG HAISCO PHARMACEUTICAL CO., LTD., priority 2021, published 2025).

Experiments:
[1] = Pharmacokinetic test in mice; type: in vivo, ICR mice
Description: 8.1 Experimental animals: male ICR mice, 20 to 25 g, 18 mice/compound, purchased from Chengdu Ddossy Experimental Animals Co., Ltd.
8.2 Experimental design: on the day of the experiment, 36 ICR mice were randomly grouped according to their body weights. The animals were fasted with water available for 12 to 14 h one day before the administration, and were fed 4 h after the administration.
Before and after the administration, 0.06 mL of blood was taken from the orbit of the animals under isoflurane anesthesia and placed in an EDTAK2 centrifuge tube. The blood was centrifuged at 5000 rpm and 4° C. for 10 min to collect plasma. The blood collection time points for the intravenous group and intragastric administration group were: 0 min, 5 min, 15 min, 30 min, 1 h, 2 h, 4 h, 6 h, 8 h, and 24 h. Before analysis and detection, all samples were stored at −80° C. The samples were analyzed quantitatively by LC-MS/MS.

[2] = target: PARP2 (Homo sapiens (Human), UniProt Q9UGN5); experiment: PARP2 protein expression level in MDA-MB-436 cells; type: cell-based
Sequence of PARP2 (Q9UGN5 whole entry): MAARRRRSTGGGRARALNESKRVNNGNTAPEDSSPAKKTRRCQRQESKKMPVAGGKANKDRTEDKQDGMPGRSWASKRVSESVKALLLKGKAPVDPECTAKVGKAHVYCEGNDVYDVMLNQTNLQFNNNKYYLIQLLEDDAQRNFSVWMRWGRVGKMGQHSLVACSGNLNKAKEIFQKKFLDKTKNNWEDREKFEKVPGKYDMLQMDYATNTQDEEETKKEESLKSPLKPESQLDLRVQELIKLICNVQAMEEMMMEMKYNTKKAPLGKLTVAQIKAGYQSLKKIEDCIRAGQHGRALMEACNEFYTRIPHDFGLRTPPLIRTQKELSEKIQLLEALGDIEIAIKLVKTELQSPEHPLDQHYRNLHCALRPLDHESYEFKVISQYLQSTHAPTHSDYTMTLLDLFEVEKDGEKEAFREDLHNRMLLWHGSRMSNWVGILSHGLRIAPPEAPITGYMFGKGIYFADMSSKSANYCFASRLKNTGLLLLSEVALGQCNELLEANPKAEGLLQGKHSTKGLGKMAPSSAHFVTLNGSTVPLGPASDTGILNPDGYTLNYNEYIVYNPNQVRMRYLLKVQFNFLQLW
Description: MDA-MB-436 cells were placed in a complete L-15 medium (supplemented with 15% FBS; 10 μg/mL Insulin; 16 μg/mL Glutathione and 1% penicillin-streptomycin solution), and cultured at 37° C. under CO2-free conditions. The cells in the logarithmic growth phase were collected, the cell density was adjusted to 2×10^5 cells/well with the culture medium, and the cells were added to a 6-well cell culture plate at a volume of 1 mL/well and cultured overnight. On day 2, the compound to be tested was prepared to 2-fold the final concentration, 1 mL of the compounds at different concentrations were added to administration wells, a medium containing 0.2% DMSO was added to control wells, and the plate was incubated for 24 hours at 37° C. […] The supernatant was collected and the protein content was determined using the BCA method. The protein sample to be tested was diluted to 2 mg/mL, PARP2 was detected using a fully automated protein expression quantitative analyzer (ProteinSimple), and the internal reference protein was 3-actin (both antibodies were from CST). The software (Compass for SW) of the fully automated protein expression quantitative analyzer was used to process the raw data and calculate the peak area and the PARP2 expression rate relative to the control group. DC50 values were calculated using a four-parameter non-linear fitting model in Graphpad 8.3.0 software.

[3] = target: PARP1 (Homo sapiens (Human), UniProt P09874); experiment: PARP1 protein expression level in MDA-MB-436 cells; type: cell-based; conditions: 24 hours
Sequence of PARP1 (P09874 whole entry): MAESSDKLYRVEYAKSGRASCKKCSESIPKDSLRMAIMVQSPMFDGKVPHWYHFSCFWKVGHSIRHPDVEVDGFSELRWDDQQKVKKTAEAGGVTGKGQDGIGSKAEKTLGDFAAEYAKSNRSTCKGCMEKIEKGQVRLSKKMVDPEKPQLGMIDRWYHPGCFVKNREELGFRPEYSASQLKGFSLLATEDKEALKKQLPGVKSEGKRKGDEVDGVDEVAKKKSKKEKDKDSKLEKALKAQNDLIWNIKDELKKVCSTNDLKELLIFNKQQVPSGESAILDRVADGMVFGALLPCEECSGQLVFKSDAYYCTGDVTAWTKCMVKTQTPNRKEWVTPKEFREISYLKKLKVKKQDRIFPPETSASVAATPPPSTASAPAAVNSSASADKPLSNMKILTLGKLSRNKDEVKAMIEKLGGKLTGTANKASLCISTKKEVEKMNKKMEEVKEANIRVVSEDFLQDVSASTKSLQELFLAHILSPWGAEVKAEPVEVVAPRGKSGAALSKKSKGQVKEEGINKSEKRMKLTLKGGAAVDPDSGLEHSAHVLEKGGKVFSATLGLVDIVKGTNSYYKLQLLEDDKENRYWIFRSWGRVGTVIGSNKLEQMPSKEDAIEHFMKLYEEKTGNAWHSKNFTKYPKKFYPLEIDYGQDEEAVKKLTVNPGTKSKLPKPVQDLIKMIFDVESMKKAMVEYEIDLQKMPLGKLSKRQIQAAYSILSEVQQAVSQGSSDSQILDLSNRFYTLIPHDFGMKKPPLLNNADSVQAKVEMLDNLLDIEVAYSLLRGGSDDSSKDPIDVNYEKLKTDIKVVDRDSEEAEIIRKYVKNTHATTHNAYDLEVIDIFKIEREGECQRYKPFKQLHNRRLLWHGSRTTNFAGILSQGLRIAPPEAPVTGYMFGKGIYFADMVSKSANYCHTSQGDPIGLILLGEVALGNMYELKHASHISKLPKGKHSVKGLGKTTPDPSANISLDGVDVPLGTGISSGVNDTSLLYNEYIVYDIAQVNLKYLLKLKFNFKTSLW
Description: (§1) MDA-MB-436 cells were placed in a complete DMEM medium (supplemented with 15% FBS; 10 μg/mL Insulin; 16 μg/mL Glutathione and 1% penicillin-streptomycin solution), and cultured at 37° C. under CO2-free conditions. The cells in the logarithmic growth phase were collected, the cell density was adjusted to 2×10^5 cells/well with the culture medium, and the cells were added to a 6-well cell culture plate at a volume of 1 mL/well. The compound to be tested was prepared to 2-fold the final concentration, 1 mL of the compounds at different concentrations were added to administration wells, a medium containing 0.2% DMSO was added to control wells, and the plate was incubated for 24 hours at 37° C. The cells were collected into a 1.5 mL centrifuge tube, 25 μL of RIPA lysis buffer (containing 1× protease inhibitor cocktail) was added, and the cells were lysed on ice for 15 minutes and centrifuged at 12000 rpm/min at 4° C. for 10 minutes. The supernatant was collected and the protein content was determined using the BCA method. The protein sample to be tested was diluted to 0.8 mg/mL, PARP1 was detected using a fully automated protein expression quantitative analyzer (ProteinSimple), and the internal reference protein was 3-actin (both antibodies were from CST). The software (Compass for SW) of the fully automated protein expression quantitative analyzer was used to process the raw data and calculate the peak area and the PARP1 expression rate relative to the control group.
as §1, with “L-15” for “DMEM”, “mL/well and cultured overnight. On day 2, the” for “mL/well. The”, “group. DC50 values were calculated using a four-parameter non-linear fitting model in Graphpad 8.3.0 software.” for “group.”

[4] = male, ICR, mouse, iv, i.v. 2.5 mg/kg, plasma

## CCc1cc2ncc(CN3CCN(c4ccc(C(=O)NC5CCN(c6ccc7c(c6)C(=O)N(C6CCC(=O)NC6=O)C7=O)CC5)nc4)CC3)cc2[nH]c1=O (stereo not shown) [Compound 10, N-(1-(2-(2,6-dioxopiperidin-3-yl)-1,3-dioxoisoindolin-5-yl)piperidin-4-yl)-5-(4-((7-ethyl-6-oxo-5,6-dihydro-1,5-naphthyridin-3-yl)methyl)piperazin-1-yl)picolinamide]
[1]
  pharmacokinetic characteristics: good pharmacokinetic characteristics
[1]; i.g. 10 mg/kg
  F: 84.6%
[1]; [4]
  AUC(0-t): 20600 ng·h/mL
  clearance: 2.02 mL/min/kg
[1]; male, ICR, mouse, iv, i.v. 2.5 mg/kg, plasma, read-out: Vdss
  Vd: 0.358 L/kg
[1]; male, ICR, mouse, po, i.g. 10 mg/kg, plasma
  AUC(0-t): 69800 ng·h/mL
[2]
  PARP1 degradation selectivity over PARP2: good PARP1 degradation selectivity
[2]; 24 hours
  DC50: > 10000 nM
[3]; 100 nM
  PARP1 degradation rate @ 100 nM: 79%
[3]
  DC50: 0.014 nM
